Assay results: US8399683B2 (TetraLogic Pharmaceuticals, priority 2008, dated 2013)
pKd: −log10 of the molar value.

Columns and labels:
SK-OV-3 cells = assay: Growth inhibition of ovarian cancer cell line SK-OV-3 (MTT assay, cell survival); assay type: cell-based; settings: Homo sapiens, drug concentration that results in 50% cell survival, 72 hrs incubation, reported as ranges
Procedure, shortened: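 After overnight seeding in McCoy's medium with 10% FBS, SK-OV-3 cells were exposed to compound at 0.003-10 μM for 72 hrs at 37° C. MTT was then added for 3 h, with DMSO solubilization and OD read at 535 nm. CC50 is the concentration giving 50% survival relative to untreated control, reported as ranges.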

cIAP-1 BIR-3 = cIAP-1 BIR-3 (Homo sapiens, UniProt Q13490); assay: Fluorescence polarization binding affinity to cIAP-1 BIR-3 (competition with AbuRPF-K(5-Fam)-NH2); settings: 5 nM labeled peptide, 40 nM BIR3, 15 min at RT, pH 7.5; reported as ranges; read-out: KD (c-IAP-1 BIR3)
Chain of cIAP-1 BIR-3 (Q13490 266-352 limits assumed): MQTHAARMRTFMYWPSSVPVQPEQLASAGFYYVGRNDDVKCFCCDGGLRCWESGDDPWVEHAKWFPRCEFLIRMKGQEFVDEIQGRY
Procedure, shortened: (§1)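 Test peptides at varied concentrations competed with 5 nM fluorescent Smac-mimetic tracer for 40 nM BIR3 domain, 15 min at RT in 0.1M potassium phosphate pH 7.5 with […] bovine g-globulin. Polarization (mP) read at 485/520 nm; KD reported in bins (A=<0.1 μM, B=0.1–1 μM, C>1–10 μM, D=>10 μM).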

XIAP BIR-3 = biological target: T1, XIAP BIR-3 (Homo sapiens, UniProt P98170); assay: Fluorescence polarization binding affinity to XIAP BIR-3 (competition with AbuRPF-K(5-Fam)-NH2); settings: 5 nM labeled peptide, 40 nM BIR3, 15 min at RT, pH 7.5; reported as ranges
T1 construct: 40 nM of the respective IAP BIR3
T1 sequence (P98170 241-356 limits assumed): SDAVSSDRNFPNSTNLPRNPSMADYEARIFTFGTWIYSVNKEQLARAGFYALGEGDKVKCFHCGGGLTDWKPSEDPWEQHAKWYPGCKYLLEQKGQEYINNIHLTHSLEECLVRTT
Procedure, shortened: as §1

Q: What does the source list for `CC[C@H](NC(=O)[C@H](C)NC)C(=O)N1CC[C@@H]2[C@H]1[C@@H](c1c[nH]c3ccc(F)cc13)CN2C(C)=O` [Example 67, N-{1-[4-Acetyl-6-(5-fluoro-1H-indol-3-yl)-hexahydro-pyrrolo[3,2-b]pyrrole-1-carbonyl]-propyl}-2-methylamino-propionamide]?
A: CC50 (SK-OV-3 cells): 100 to 1000 nM; pKd (cIAP-1 BIR-3): > 7.00; pKd (XIAP BIR-3): > 7.00

Q: For `CN[C@@H](C)C(=O)N[C@H](C(=O)N1CC[C@@H]2[C@H]1[C@@H](c1c[nH]c3ccc(F)cc13)CN2C(C)=O)C(C)C` [Example 68, N-{1-[4-Acetyl-6-(5-fluoro-1H-indol-3-yl)-hexahydro-pyrrolo[3,2-b]pyrrole-1-carbonyl]-2-methyl-propyl}-2-methylamino-propionamide], which CC50 (SK-OV-3 cells) is on record?
A: Its CC50 is < 100 nM.

Q: And the pKd (cIAP-1 BIR-3)?
A: Its pKd is > 7.00.

Q: And the pKd (XIAP BIR-3)?
A: Its pKd is > 7.00.

Q: What does the source list for `CN[C@@H](C)C(=O)N[C@H](C(=O)N1CC[C@@H]2[C@H]1[C@@H](c1c[nH]c3ccc(F)cc13)CN2C(C)=O)C(C)(C)C` [Example 69, N-{1-[4-Acetyl-6-(5-fluoro-1H-indol-3-yl)-hexahydro-pyrrolo[3,2-b]pyrrole-1-carbonyl]-2,2-dimethyl-propyl}-2-methylamino-propionamide]?
A: CC50 (SK-OV-3 cells): < 100 nM; pKd (cIAP-1 BIR-3): > 7.00; pKd (XIAP BIR-3): > 7.00

Q: How did the CC50 (SK-OV-3 cells) turn out when `CN[C@@H](C)C(=O)N[C@H](C(=O)N1CC[C@@H]2[C@H]1[C@@H](c1c[nH]c3ccc(F)cc13)CN2C(C)=O)C1CCCCC1` [Example 70, N-{2-[4-Acetyl-6-(5-fluoro-1H-indol-3-yl)-hexahydro-pyrrolo[3,2-b]pyrrol-1-yl]-1-cyclohexyl-2-oxo-ethyl}-2-methylamino-propionamide] was run?
A: The CC50 was < 100 nM.

Q: What about the pKd (cIAP-1 BIR-3) of the same compound?
A: Its pKd is > 7.00.

Q: What about the pKd (XIAP BIR-3) of the same compound?
A: The pKd was > 7.00.

Q: For `CN[C@@H](C)C(=O)N[C@H](C(=O)N1CC[C@@H]2[C@H]1[C@@H](c1c[nH]c3ccc(F)cc13)CN2C(C)=O)[C@@H](C)OC` [Example 71, N-{1-[4-Acetyl-6-(5-fluoro-1H-indol-3-yl)-hexahydro-pyrrolo[3,2-b]pyrrole-1-carbonyl]-2-methoxy-propyl}-2-methylamino-propionamide], which CC50 (SK-OV-3 cells) is on record?
A: Its CC50 is < 100 nM.

Q: And the pKd (cIAP-1 BIR-3)?
A: The pKd was > 7.00.

Q: What about the pKd (XIAP BIR-3) of the same compound?
A: The pKd was > 7.00.

Q: For `CN[C@@H](C)C(=O)N[C@@H](COC)C(=O)N1CC[C@@H]2[C@H]1[C@@H](c1c[nH]c3ccc(F)cc13)CN2C(C)=O` [Example 72, N-{2-[4-Acetyl-6-(5-fluoro-1H-indol-3-yl)-hexahydro-pyrrolo[3,2-b]pyrrol-1-yl]-1-methoxymethyl-2-oxo-ethyl}-2-methylamino-propionamide], which CC50 (SK-OV-3 cells) is on record?
A: The CC50 was 1000 to 10000 nM.

Q: And the pKd (cIAP-1 BIR-3)?
A: Its pKd is > 7.00.

Q: And the pKd (XIAP BIR-3)?
A: Its pKd is > 7.00.

Q: How did the CC50 (SK-OV-3 cells) turn out when `CN[C@@H](C)C(=O)N[C@@H](CO)C(=O)N1CC[C@@H]2[C@H]1[C@@H](c1c[nH]c3ccc(F)cc13)CN2C(C)=O` [Example 73, N-{2-[4-Acetyl-6-(5-fluoro-1H-indol-3-yl)-hexahydro-pyrrolo[3,2-b]pyrrol-1-yl]-1-hydroxymethyl-2-oxo-ethyl}-2-methylamino-propionamide] was run?
A: Its CC50 is 1000 to 10000 nM.

Q: What about the pKd (cIAP-1 BIR-3) of the same compound?
A: Its pKd is > 7.00.

Q: What about the pKd (XIAP BIR-3) of the same compound?
A: Its pKd is > 7.00.

Q: How did the CC50 (SK-OV-3 cells) turn out when `CN[C@@H](C)C(=O)N[C@H](C(=O)N1CC[C@@H]2[C@H]1[C@@H](c1c[nH]c3ccc(F)cc13)CN2C(C)=O)[C@@H](C)O` [Example 74, N-{1-[4-Acetyl-6-(5-fluoro-1H-indol-3-yl)-hexahydro-pyrrolo[3,2-b]pyrrole-1-carbonyl]-2-hydroxy-propyl}-2-methylamino-propionamide] was run?
A: Its CC50 is 100 to 1000 nM.

Q: What about the pKd (cIAP-1 BIR-3) of the same compound?
A: Its pKd is > 7.00.

Q: What about the pKd (XIAP BIR-3) of the same compound?
A: Its pKd is > 7.00.

Q: `CN[C@@H](C)C(=O)N[C@H](C(=O)N1CC[C@@H]2[C@H]1[C@@H](c1c[nH]c3cc(F)ccc13)CN2c1ncccn1)C1CCCCC1` [Example 75, N-{1-Cyclohexyl-2-[6-(6-fluoro-1H-indol-3-yl)-4-pyrimidin-2-yl-hexahydro-pyrrolo[3,2-b]pyrrol-1-yl]-2-oxo-ethyl}-2-methylamino-propionamide] was tested. Which CC50 (SK-OV-3 cells) did it give?
A: Its CC50 is < 100 nM.

Q: And the pKd (cIAP-1 BIR-3)?
A: Its pKd is > 7.00.

Q: And the pKd (XIAP BIR-3)?
A: The pKd was > 7.00.

Q: Which CC50 (SK-OV-3 cells) does the source give for `CN[C@@H](C)C(=O)N[C@H](C(=O)N1CC[C@@H]2[C@H]1[C@@H](c1c[nH]c3cc(F)ccc13)CN2c1nccc(Cl)n1)C1CCCCC1` [Example 76, N-{2-[4-(4-Chloro-pyrimidin-2-yl)-6-(6-fluoro-1H-indol-3-yl)-hexahydro-pyrrolo[3,2-b]pyrrol-1-yl]-1-cyclohexyl-2-oxo-ethyl}-2-methylamino-propionamide] here?
A: The CC50 was < 100 nM.

Q: And the pKd (cIAP-1 BIR-3)?
A: Its pKd is > 7.00.

Q: And the pKd (XIAP BIR-3)?
A: The pKd was > 7.00.

Q: Which results are given for `CN[C@@H](C)C(=O)N[C@H](C(=O)N1CC[C@@H]2[C@H]1[C@@H](c1c[nH]c3cc(F)ccc13)CN2c1ncccn1)C(C)C` [Example 77, N-{1-[6-(6-Fluoro-1H-indol-3-yl)-4-pyrimidin-2-yl-hexahydro-pyrrolo[3,2-b]pyrrole-1-carbonyl]-2-methyl-propyl}-2-methylamino-propionamide]?
A: CC50 (SK-OV-3 cells): < 100 nM; pKd (cIAP-1 BIR-3): > 7.00; pKd (XIAP BIR-3): > 7.00

Q: How did the CC50 (SK-OV-3 cells) turn out when `CC[C@H](NC(=O)[C@H](C)NC)C(=O)N1CC[C@@H]2[C@H]1[C@@H](c1c[nH]c3cc(F)ccc13)CN2c1ncccn1` [Example 78, N-{1-[6-(6-Fluoro-1H-indol-3-yl)-4-pyrimidin-2-yl-hexahydro-pyrrolo[3,2-b]pyrrole-1-carbonyl]-propyl}-2-methylamino-propionamide] was run?
A: Its CC50 is < 100 nM.

Q: And the pKd (cIAP-1 BIR-3)?
A: Its pKd is > 7.00.

Q: And the pKd (XIAP BIR-3)?
A: The pKd was 6.00 to 7.00.

Q: Which results are given for `CN[C@@H](C)C(=O)N[C@H](C(=O)N1CC[C@@H]2[C@H]1[C@@H](c1c[nH]c3cc(F)ccc13)CN2c1ncccn1)C(C)(C)C` [Example 79, N-{1-[6-(6-Fluoro-1H-indol-3-yl)-4-pyrimidin-2-yl-hexahydro-pyrrolo[3,2-b]pyrrole-1-carbonyl]-2,2-dimethyl-propyl}-2-methylamino-propionamide]?
A: CC50 (SK-OV-3 cells): < 100 nM; pKd (cIAP-1 BIR-3): > 7.00; pKd (XIAP BIR-3): > 7.00

Q: For `CN[C@@H](C)C(=O)N[C@@H](CO)C(=O)N1CC[C@@H]2[C@H]1[C@@H](c1c[nH]c3cc(F)ccc13)CN2c1ncccn1` [Example 80, N-{2-[6-(6-Fluoro-1H-indol-3-yl)-4-pyrimidin-2-yl-hexahydro-pyrrolo[3,2-b]pyrrol-1-yl]-1-hydroxymethyl-2-oxo-ethyl}-2-methylamino-propionamide], which CC50 (SK-OV-3 cells) is on record?
A: Its CC50 is < 100 nM.

Q: What about the pKd (cIAP-1 BIR-3) of the same compound?
A: Its pKd is > 7.00.

Q: And the pKd (XIAP BIR-3)?
A: Its pKd is > 7.00.

Q: How did the CC50 (SK-OV-3 cells) turn out when `CN[C@@H](C)C(=O)N[C@@H](COC)C(=O)N1CC[C@@H]2[C@H]1[C@@H](c1c[nH]c3cc(F)ccc13)CN2c1ncccn1` [Example 81, N-{2-[6-(6-Fluoro-1H-indol-3-yl)-4-pyrimidin-2-yl-hexahydro-pyrrolo[3,2-b]pyrrol-1-yl]-1-methoxymethyl-2-oxo-ethyl}-2-methylamino-propionamide] was run?
A: The CC50 was < 100 nM.

Q: What about the pKd (cIAP-1 BIR-3) of the same compound?
A: Its pKd is > 7.00.

Q: What about the pKd (XIAP BIR-3) of the same compound?
A: The pKd was > 7.00.

Q: What does the source list for `CN[C@@H](C)C(=O)N[C@H](C(=O)N1CC[C@@H]2[C@H]1[C@@H](c1c[nH]c3cc(F)ccc13)CN2c1ncccn1)[C@@H](C)O` [Example 82, N-{1-[6-(6-Fluoro-1H-indol-3-yl)-4-pyrimidin-2-yl-hexahydro-pyrrolo[3,2-b]pyrrole-1-carbonyl]-2-hydroxy-propyl}-2-methylamino-propionamide]?
A: CC50 (SK-OV-3 cells): < 100 nM; pKd (cIAP-1 BIR-3): > 7.00; pKd (XIAP BIR-3): > 7.00

Q: What does the source list for `CN[C@@H](C)C(=O)N[C@H](C(=O)N1CC[C@@H]2[C@H]1[C@@H](c1c[nH]c3cc(F)ccc13)CN2c1ncccn1)[C@@H](C)OC` [Example 83, N-{1-[6-(6-Fluoro-1H-indol-3-yl)-4-pyrimidin-2-yl-hexahydro-pyrrolo[3,2-b]pyrrole-1-carbonyl]-2-methoxy-propyl}-2-methylamino-propionamide]?
A: CC50 (SK-OV-3 cells): < 100 nM; pKd (cIAP-1 BIR-3): > 7.00; pKd (XIAP BIR-3): > 7.00

Q: Which CC50 (SK-OV-3 cells) does the source give for `CN[C@@H](C)C(=O)N[C@H](C(=O)N1C[C@@H](O)[C@@H]2[C@H]1[C@@H](c1c[nH]c3cc(F)ccc13)CN2C(=O)OCc1ccccc1)C1CCCCC1` [Example 84, 4-[2-Cyclohexyl-2-(2-methylamino-propionylamino)-acetyl]-3S-(6-fluoro-1H-indol-3-yl)-6-hydroxy-hexahydro-pyrrolo[3,2-b]pyrrole-1-carboxylic acid benzyl ester] here?
A: The CC50 was < 100 nM.

Q: What about the pKd (cIAP-1 BIR-3) of the same compound?
A: Its pKd is > 7.00.

Q: And the pKd (XIAP BIR-3)?
A: Its pKd is > 7.00.

Q: Which results are given for `CN[C@@H](C)C(=O)N[C@H](C(=O)N1C[C@@H](O)[C@H]2NC[C@H](c3c[nH]c4cc(F)ccc34)[C@H]21)C1CCCCC1` [Example 85]?
A: CC50 (SK-OV-3 cells): 100 to 1000 nM; pKd (cIAP-1 BIR-3): > 7.00; pKd (XIAP BIR-3): 6.00 to 7.00

Q: What does the source list for `CN[C@@H](C)C(=O)N[C@H](C(=O)N1C[C@@H](O)[C@H]2NC[C@@H](c3c[nH]c4cc(F)ccc34)[C@H]21)C1CCCCC1` [Example 86, N-{1-Cyclohexyl-2-[6R-(6-fluoro-1H-indol-3-yl)-3-hydroxy-hexahydro-pyrrolo[3,2-b]pyrrol-1-yl]-2-oxo-ethyl}-2-methylamino-propionamide]?
A: CC50 (SK-OV-3 cells): > 10000 nM; pKd (cIAP-1 BIR-3): 6.00 to 7.00; pKd (XIAP BIR-3): < 5.00

Q: For `CN[C@@H](C)C(=O)N[C@H](C(=O)N1CC[C@H]2NC[C@@H](c3c[nH]c4cc(F)ccc34)[C@H]21)C1CCCCC1` [Example 87], which CC50 (SK-OV-3 cells) is on record?
A: Its CC50 is > 10000 nM.

Q: And the pKd (cIAP-1 BIR-3)?
A: The pKd was 5.00 to 6.00.

Q: What about the pKd (XIAP BIR-3) of the same compound?
A: The pKd was < 5.00.

Q: What does the source list for `C[C@H](N)C(=O)N[C@H](C(=O)N1CC[C@H]2NC[C@H](c3c[nH]c4cc(F)ccc34)[C@H]21)C1CCCCC1` [Example 88]?
A: CC50 (SK-OV-3 cells): > 10000 nM; pKd (cIAP-1 BIR-3): > 7.00; pKd (XIAP BIR-3): > 7.00
